Source: ChEMBL document CHEMBL1201862, “PubChem BioAssay data set” (2004)
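Five concentrations, 48 hours, 96-well plates. GI50 marks 50% less growth.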 The source made the active and inactive calls. Rule as the data show it: active = GI50 up to about 1.1 µM and inactive = higher.

Key:
Experiment in all cases: inhibition of tumour cell growth, NCI panel, 48 h
DLD-1 = tested on: DLD-1
LXFL 529 = tested on: LXFL 529
HOP-18 = tested on: HOP-18
SNB-78 = tested on: SNB-78
DMS-273 = tested on: DMS-273
M19-MEL = tested on: M19-MEL
KM-20L2 = tested on: KM-20L2
RXF 631 = tested on: RXF 631
XF498 = tested on: XF498

Structure (SMILES) | GI50 (DLD-1) | GI50 (LXFL 529) | GI50 (HOP-18) | GI50 (SNB-78) | GI50 (DMS-273) | GI50 (M19-MEL) | GI50 (KM-20L2) | GI50 (RXF 631) | GI50 (XF498)
C=CCn1c(=O)n(CC=C)c(=O)n(CC=C)c1=O | > 100 µM (inactive) | > 100 µM (inactive) | > 100 µM (inactive) | > 100 µM (inactive) | > 100 µM (inactive) | > 100 µM (inactive) | > 100 µM (inactive) | – | –
CC1(C2CCC3(C)OC3C2)CO1 (stereo unspecified) | > 100 µM (inactive) | > 100 µM (inactive) | > 100 µM (inactive) | > 100 µM (inactive) | > 100 µM (inactive) | > 100 µM (inactive) | > 100 µM (inactive) | > 100 µM (inactive) | > 100 µM (inactive)
COc1ccc2ccccc2c1CN1CCOCCOCCN(Cc2c(OC)ccc3ccccc23)CCOCCOCC1 | > 100 µM (inactive) | > 89.9 µM (inactive) | – | > 68.4 µM (inactive) | 24.2 µM (inactive) | > 81.8 µM (inactive) | > 23 µM (inactive) | – | > 41.5 µM (inactive)
CC(C)N(C(=O)C12C3C4C5(C(=O)O)C(C1C35I)C42C(=O)O)C(C)C (stereo unspecified) | > 100 µM (inactive) | > 100 µM (inactive) | – | > 100 µM (inactive) | > 100 µM (inactive) | > 100 µM (inactive) | > 100 µM (inactive) | > 100 µM (inactive) | –
COC(=O)c1nn(C(=N)c2ccc(Cl)cc2)c2c1CCCCC2 | > 100 µM (inactive) | > 100 µM (inactive) | – | > 100 µM (inactive) | > 100 µM (inactive) | > 100 µM (inactive) | > 100 µM (inactive) | – | –
O=C(/C=C/c1ccc([N+](=O)[O-])cc1)c1ccc(NCc2nc3ccccc3[nH]2)cc1 | 3.97 µM (inactive) | 2.9 µM (inactive) | 16.4 µM (inactive) | 5.81 µM (inactive) | 3.05 µM (inactive) | 3.94 µM (inactive) | 3.98 µM (inactive) | 3.49 µM (inactive) | 6.17 µM (inactive)
CCOP(=S)(OCC)Oc1ccc2c(c1)OC(=O)C1(Cl)C2(C)C2(Cl)C(=O)Oc3cc(OP(=S)(OCC)OCC)ccc3C12C (stereo unspecified) | 16.8 µM (inactive) | 8.67 µM (inactive) | – | 19.4 µM (inactive) | 20.3 µM (inactive) | 18 µM (inactive) | 17.1 µM (inactive) | – | 19.2 µM (inactive)
O=C1/C(=C/c2ccccc2)CN(C(=O)CCN2CCCC2)C/C1=C\c1ccccc1 | 1.46 µM (inactive) | 1.72 µM (inactive) | 3.35 µM (inactive) | 3.8 µM (inactive) | 1.75 µM (inactive) | 1.84 µM (inactive) | 1.62 µM (inactive) | 4.08 µM (inactive) | 5.09 µM (inactive)
COC1=NCc2ccccc2-c2ccccc21 | > 100 µM (inactive) | > 10 µM (inactive) | 75.9 µM (inactive) | > 100 µM (inactive) | > 100 µM (inactive) | – | – | – | > 100 µM (inactive)
COC(=O)C1=C(c2cc(OC)c(OC)c(OC)c2)OC(c2ccc(OC)c(OC)c2)C1 (stereo unspecified) | 36.5 µM (inactive) | 26.5 µM (inactive) | 92.3 µM (inactive) | – | 45.4 µM (inactive) | 43.3 µM (inactive) | 44.9 µM (inactive) | – | 68.4 µM (inactive)
CCC(=S)N(C)O | 24.6 µM (inactive) | 0.499 µM (active) | – | 55.6 µM (inactive) | – | 9.77 µM (inactive) | 21.7 µM (inactive) | – | 1.01 µM (active)
CN(C)C(=S)/N=c1\ss/c(=N\S(=O)(=O)c2ccccc2)n1N(C)C | > 100 µM (inactive) | > 100 µM (inactive) | > 100 µM (inactive) | > 100 µM (inactive) | 92 µM (inactive) | 55.5 µM (inactive) | > 100 µM (inactive) | > 100 µM (inactive) | –
Oc1ccc2ccccc2c1/N=N/c1ccsc1 | > 100 µM (inactive) | > 100 µM (inactive) | > 100 µM (inactive) | > 100 µM (inactive) | > 100 µM (inactive) | > 100 µM (inactive) | > 100 µM (inactive) | 45.5 µM (inactive) | –
CN(C)NC(=O)NC12CC3CC(CC(C3)C1)C2 | – | > 100 µM (inactive) | – | > 100 µM (inactive) | > 100 µM (inactive) | > 100 µM (inactive) | > 100 µM (inactive) | – | > 100 µM (inactive)
Cc1cc2c(cn1)C(=O)OCC2 | > 100 µM (inactive) | > 100 µM (inactive) | > 100 µM (inactive) | > 100 µM (inactive) | – | > 100 µM (inactive) | > 100 µM (inactive) | – | > 100 µM (inactive)
CC12C(=CC(=O)CC1SCCS(=O)(=O)O)C(C#N)=C(N)N2c1ccc(Cl)c(Cl)c1 (stereo unspecified) | > 100 µM (inactive) | > 100 µM (inactive) | – | > 100 µM (inactive) | > 100 µM (inactive) | > 100 µM (inactive) | > 100 µM (inactive) | – | –
COc1cccc(/C=N/[N-]C(=S)Nc2ccccc2)c1[O-].O.[Zn+2] | 29 µM (inactive) | 68.5 µM (inactive) | > 100 µM (inactive) | 40.1 µM (inactive) | – | 60 µM (inactive) | 40.3 µM (inactive) | – | 23.2 µM (inactive)
COc1cccc2c1C(=O)c1c(O)c3c(c(O)c1C2=O)CC(O)(C(O)CO)CC3OC1CC(N2CCOCC2)C(O)C(C)O1 (stereo unspecified) | < 0.001 µM (active) | 0.0124 µM (active) | < 0.001 µM (active) | 0.0106 µM (active) | < 0.001 µM (active) | 0.0146 µM (active) | 0.0267 µM (active) | < 0.001 µM (active) | 0.0168 µM (active)
